Measured values reported in the kinase profiling compilation of Christmann-Franck et al. (2016).

Key:
Assay in all cases: KINOMEscan competition binding
Details in all cases: compound 10.0 µM
ADCK4 (human) = ADCK4 (human) (UniProt Q96D53)
AXL (human) = AXL (human) (UniProt P30530)
BMPR2 (human) = BMPR2 (human) (UniProt Q13873)
CAMK1D (human) = CAMK1D (human) (UniProt Q8IU85)
CDK4 CCND1 (human) = CDK4 CCND1 (human) (UniProt P11802+P24385)
CDK5 (human) = CDK5 (human) (UniProt Q00535)
CDK9 (human) = CDK9 (human) (UniProt P50750)
CDKL2 (human) = CDKL2 (human) (UniProt Q92772)
CDKL3 (human) = CDKL3 (human) (UniProt Q8IVW4)
CSNK1A1 (human) = CSNK1A1 (human) (UniProt P48729)
CSNK2A1 (human) = CSNK2A1 (human) (UniProt P68400)
DCLK3 (human) = DCLK3 (human) (UniProt Q9C098)
[1] = tested on: EGFR (human), P00533 [T790M/L858R]
EPHA6 (human) = EPHA6 (human) (UniProt Q9UF33)
Sequence of EPHA6 (human) (Q9UF33 whole entry, looked up): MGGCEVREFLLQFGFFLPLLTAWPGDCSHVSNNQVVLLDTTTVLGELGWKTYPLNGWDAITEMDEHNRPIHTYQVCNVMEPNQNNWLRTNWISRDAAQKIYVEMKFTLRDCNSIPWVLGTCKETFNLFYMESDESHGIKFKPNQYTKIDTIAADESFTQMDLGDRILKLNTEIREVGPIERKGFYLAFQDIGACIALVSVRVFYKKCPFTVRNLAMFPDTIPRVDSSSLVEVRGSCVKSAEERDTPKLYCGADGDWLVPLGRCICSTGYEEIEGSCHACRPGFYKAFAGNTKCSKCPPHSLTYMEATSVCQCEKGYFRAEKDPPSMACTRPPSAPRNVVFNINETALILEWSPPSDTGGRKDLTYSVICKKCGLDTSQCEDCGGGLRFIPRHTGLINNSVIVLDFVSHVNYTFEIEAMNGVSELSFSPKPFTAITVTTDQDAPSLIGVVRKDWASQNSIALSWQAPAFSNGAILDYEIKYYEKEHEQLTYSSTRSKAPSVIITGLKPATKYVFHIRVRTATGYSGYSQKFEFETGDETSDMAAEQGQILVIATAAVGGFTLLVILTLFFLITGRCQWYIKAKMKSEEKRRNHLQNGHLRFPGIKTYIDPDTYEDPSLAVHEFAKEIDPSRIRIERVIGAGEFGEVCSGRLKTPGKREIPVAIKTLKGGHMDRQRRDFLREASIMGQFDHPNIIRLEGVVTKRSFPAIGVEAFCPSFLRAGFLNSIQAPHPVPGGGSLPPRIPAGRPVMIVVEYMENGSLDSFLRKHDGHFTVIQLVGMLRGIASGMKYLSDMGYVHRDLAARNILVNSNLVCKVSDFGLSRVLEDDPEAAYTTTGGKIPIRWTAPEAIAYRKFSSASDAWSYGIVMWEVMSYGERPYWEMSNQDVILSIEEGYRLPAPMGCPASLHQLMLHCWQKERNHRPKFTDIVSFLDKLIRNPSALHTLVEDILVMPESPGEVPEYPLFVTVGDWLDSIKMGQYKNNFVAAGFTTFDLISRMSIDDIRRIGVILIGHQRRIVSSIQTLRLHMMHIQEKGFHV

ERBB2 (human) = ERBB2 (human) (UniProt P04626)
[2] = tested on: FGFR3 (human), P22607 [G697C]
Sequence of FGFR3 (human), P22607 [G697C] (P22607 whole entry G697C, looked up): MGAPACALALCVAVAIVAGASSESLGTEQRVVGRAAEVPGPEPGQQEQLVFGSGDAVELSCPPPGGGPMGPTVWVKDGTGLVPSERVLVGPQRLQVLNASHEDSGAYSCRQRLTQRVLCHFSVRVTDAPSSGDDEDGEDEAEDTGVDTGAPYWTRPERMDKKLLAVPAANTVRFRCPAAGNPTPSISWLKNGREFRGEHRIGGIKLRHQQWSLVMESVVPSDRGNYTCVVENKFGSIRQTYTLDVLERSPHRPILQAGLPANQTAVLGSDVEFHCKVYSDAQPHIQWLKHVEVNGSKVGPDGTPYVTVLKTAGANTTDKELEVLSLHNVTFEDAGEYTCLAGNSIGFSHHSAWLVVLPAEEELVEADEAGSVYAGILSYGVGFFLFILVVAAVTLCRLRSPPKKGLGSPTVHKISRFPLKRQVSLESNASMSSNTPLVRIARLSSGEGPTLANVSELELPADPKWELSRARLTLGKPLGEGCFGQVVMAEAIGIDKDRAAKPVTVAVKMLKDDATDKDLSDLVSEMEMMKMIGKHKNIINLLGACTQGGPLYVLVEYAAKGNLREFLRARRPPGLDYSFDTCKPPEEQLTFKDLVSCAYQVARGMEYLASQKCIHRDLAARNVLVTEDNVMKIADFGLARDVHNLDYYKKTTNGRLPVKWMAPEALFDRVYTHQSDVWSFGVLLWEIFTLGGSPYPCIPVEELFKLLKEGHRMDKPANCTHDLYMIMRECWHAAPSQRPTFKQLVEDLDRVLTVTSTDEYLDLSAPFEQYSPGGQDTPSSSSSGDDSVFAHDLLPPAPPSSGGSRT

HIPK1 (human) = HIPK1 (human) (UniProt Q86Z02)
IGF1R (human) = IGF1R (human) (UniProt P08069)
IRAK1 (human) = IRAK1 (human) (UniProt P51617)
IRAK4 (human) = IRAK4 (human) (UniProt Q9NWZ3)
MAP2K4 (human) = MAP2K4 (human) (UniProt P45985)
Sequence of MAP2K4 (human) (P45985 whole entry, looked up): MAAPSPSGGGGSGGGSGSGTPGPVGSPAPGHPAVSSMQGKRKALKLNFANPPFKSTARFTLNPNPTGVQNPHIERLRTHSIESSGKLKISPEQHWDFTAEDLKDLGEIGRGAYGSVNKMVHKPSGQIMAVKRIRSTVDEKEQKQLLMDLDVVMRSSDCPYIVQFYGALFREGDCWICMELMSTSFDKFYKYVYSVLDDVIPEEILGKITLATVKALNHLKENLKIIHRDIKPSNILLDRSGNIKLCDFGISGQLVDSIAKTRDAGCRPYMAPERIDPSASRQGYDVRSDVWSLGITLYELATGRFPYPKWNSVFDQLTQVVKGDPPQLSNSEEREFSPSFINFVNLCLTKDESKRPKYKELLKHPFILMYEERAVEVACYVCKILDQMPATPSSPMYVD

MAPK1 (human) = MAPK1 (human) (UniProt P28482)
MAPK15 (human) = MAPK15 (human) (UniProt Q8TD08)
NEK4 (human) = NEK4 (human) (UniProt P51957)
NEK9 (human) = NEK9 (human) (UniProt Q8TD19)
[3] = tested on: PIK3CA (human), P42336 [C420R]
[4] = tested on: PIK3CA (human), P42336 [E545K]
PKN2 (human) = PKN2 (human) (UniProt Q16513)
PKN3 (M.tuberculosis) = PKN3 (M.tuberculosis) (UniProt Q6P5Z2)
PRKAA2 (human) = PRKAA2 (human) (UniProt P54646)
PRKCH (human) = PRKCH (human) (UniProt P24723)
PTK2 (human) = PTK2 (human) (UniProt Q05397)
Sequence of PTK2 (human) (Q05397 whole entry, looked up): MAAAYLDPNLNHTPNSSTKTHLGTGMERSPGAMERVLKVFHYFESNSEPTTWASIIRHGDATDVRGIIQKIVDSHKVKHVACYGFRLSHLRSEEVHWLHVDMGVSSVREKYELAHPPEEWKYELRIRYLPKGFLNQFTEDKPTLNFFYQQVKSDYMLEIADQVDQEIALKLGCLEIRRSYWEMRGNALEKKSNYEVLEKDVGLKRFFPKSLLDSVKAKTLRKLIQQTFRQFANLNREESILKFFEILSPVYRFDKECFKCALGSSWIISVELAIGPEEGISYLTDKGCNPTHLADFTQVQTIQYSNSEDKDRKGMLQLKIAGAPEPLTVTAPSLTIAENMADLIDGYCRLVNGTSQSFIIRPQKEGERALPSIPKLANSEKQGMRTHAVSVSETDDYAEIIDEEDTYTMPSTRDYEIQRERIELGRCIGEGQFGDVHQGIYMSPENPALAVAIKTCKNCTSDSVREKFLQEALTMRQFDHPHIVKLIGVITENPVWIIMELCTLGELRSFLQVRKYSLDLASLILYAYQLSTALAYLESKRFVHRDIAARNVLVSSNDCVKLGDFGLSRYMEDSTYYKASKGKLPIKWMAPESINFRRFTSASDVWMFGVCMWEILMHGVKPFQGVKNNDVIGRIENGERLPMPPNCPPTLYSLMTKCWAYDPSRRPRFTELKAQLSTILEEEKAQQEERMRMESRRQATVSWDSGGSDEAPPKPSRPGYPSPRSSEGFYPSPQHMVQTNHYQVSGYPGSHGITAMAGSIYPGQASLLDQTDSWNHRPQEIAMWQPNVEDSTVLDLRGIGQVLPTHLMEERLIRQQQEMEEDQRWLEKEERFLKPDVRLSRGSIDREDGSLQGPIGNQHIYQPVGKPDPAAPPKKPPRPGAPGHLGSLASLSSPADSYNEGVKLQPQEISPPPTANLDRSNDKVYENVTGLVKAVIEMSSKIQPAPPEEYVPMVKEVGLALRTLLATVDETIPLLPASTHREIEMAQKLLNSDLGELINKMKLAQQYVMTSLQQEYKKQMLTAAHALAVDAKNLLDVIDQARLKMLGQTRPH

RAF1 (human) = RAF1 (human) (UniProt P04049)
RET (human) = RET (human) (UniProt P07949)
Sequence of RET (human) (P07949 whole entry, looked up): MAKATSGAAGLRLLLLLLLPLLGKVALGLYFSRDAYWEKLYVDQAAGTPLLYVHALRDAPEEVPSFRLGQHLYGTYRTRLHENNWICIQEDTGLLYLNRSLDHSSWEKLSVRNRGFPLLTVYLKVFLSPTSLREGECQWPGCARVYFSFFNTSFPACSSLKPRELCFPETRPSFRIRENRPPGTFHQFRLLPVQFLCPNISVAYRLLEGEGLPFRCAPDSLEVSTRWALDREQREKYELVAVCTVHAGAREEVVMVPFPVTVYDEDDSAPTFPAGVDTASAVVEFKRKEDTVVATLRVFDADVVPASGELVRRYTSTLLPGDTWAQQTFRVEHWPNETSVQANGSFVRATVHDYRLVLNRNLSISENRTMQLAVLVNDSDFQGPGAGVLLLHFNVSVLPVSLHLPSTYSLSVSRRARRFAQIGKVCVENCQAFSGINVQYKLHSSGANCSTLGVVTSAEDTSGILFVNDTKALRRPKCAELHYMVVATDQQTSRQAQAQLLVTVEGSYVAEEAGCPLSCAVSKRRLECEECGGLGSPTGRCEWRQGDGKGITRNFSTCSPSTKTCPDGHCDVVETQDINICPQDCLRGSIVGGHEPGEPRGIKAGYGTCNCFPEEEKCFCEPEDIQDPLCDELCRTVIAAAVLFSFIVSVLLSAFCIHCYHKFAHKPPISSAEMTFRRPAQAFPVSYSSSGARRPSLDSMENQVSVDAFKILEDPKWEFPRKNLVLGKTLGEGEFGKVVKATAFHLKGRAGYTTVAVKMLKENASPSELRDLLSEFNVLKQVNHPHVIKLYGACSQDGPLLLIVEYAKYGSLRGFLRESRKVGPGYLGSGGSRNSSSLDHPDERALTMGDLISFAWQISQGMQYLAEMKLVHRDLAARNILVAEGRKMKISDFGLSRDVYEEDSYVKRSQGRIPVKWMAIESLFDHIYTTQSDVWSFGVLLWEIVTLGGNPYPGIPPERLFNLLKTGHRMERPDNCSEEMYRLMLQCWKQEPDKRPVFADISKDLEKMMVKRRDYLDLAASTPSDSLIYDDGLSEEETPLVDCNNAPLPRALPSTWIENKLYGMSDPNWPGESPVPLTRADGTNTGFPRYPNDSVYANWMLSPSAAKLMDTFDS

RIOK3 (human) = RIOK3 (human) (UniProt O14730)
ROCK1 (human) = ROCK1 (human) (UniProt Q13464)
RPS6KA2 KD1 (human) = RPS6KA2 KD1 (human) (UniProt Q15349)
RPS6KB1 (human) = RPS6KB1 (human) (UniProt P23443)
STK4 (human) = STK4 (human) (UniProt Q13043)
TRPM6 (human) = TRPM6 (human) (UniProt Q9BX84)
ULK3 (human) = ULK3 (human) (UniProt Q6PHR2)
YSK4 (human) = YSK4 (human) (UniProt Q56UN5)

Sequence of CDK4 CCND1 (human) (P11802 whole entry, looked up): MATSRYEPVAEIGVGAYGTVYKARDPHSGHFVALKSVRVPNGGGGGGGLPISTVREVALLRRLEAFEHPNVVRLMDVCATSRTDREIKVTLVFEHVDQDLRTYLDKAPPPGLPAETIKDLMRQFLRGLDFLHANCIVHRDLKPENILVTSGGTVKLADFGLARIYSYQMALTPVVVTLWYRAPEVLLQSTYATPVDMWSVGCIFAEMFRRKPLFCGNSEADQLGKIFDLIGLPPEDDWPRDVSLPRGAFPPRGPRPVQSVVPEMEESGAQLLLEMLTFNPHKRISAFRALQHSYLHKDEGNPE
Sequence of CDK4 CCND1 (human) (P24385 whole entry, looked up): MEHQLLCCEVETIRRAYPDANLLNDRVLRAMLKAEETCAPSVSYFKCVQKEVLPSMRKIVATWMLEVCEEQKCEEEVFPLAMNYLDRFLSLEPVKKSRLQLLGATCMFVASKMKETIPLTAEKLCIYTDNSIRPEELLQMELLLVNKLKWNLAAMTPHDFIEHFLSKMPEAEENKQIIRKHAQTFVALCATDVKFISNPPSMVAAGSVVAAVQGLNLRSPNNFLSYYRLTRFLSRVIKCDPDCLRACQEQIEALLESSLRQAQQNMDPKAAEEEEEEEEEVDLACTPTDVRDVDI

With `Cc1ccc(NC(=O)c2ccc(NC(=O)/C=C/CN(C)C)cc2)cc1Nc1nccc(-c2cccnc2)n1` the kinase still bound, per cent of control (ADCK4 (human)) was 60%, the kinase still bound, per cent of control (AXL (human)) was 90% and the kinase still bound, per cent of control (BMPR2 (human)) was 86%. For the same compound, the kinase still bound, per cent of control (CAMK1D (human)) was 85%, the kinase still bound, per cent of control (CDK4 CCND1 (human)) was 100% and the kinase still bound, per cent of control (CDK5 (human)) was 100%. It also gave a kinase still bound, per cent of control (CDK9 (human)) of 100%, a kinase still bound, per cent of control (CDKL2 (human)) of 100% and a kinase still bound, per cent of control (CDKL3 (human)) of 100%. For the same compound, the kinase still bound, per cent of control (CSNK1A1 (human)) was 55%, the kinase still bound, per cent of control (CSNK2A1 (human)) was 11% and the kinase still bound, per cent of control (DCLK3 (human)) was 100%. The kinase still bound, per cent of control [1] was 100%, the kinase still bound, per cent of control (EPHA6 (human)) was 100% and the kinase still bound, per cent of control (ERBB2 (human)) was 50%. The kinase still bound, per cent of control [2] was 97%, the kinase still bound, per cent of control (HIPK1 (human)) was 44% and the kinase still bound, per cent of control (IGF1R (human)) was 100%. For the same compound, the kinase still bound, per cent of control (IRAK1 (human)) was 13%, the kinase still bound, per cent of control (IRAK4 (human)) was 81% and the kinase still bound, per cent of control (MAP2K4 (human)) was 15%. The kinase still bound, per cent of control (MAPK1 (human)) was 82%, the kinase still bound, per cent of control (MAPK15 (human)) was 100% and the kinase still bound, per cent of control (NEK4 (human)) was 100%. For the same compound, the kinase still bound, per cent of control (NEK9 (human)) was 100%, the kinase still bound, per cent of control [3] was 100% and the kinase still bound, per cent of control [4] was 96%. For the same compound, the kinase still bound, per cent of control (PKN2 (human)) was 91%, the kinase still bound, per cent of control (PKN3 (M.tuberculosis)) was 86% and the kinase still bound, per cent of control (PRKAA2 (human)) was 56%. For the same compound, the kinase still bound, per cent of control (PRKCH (human)) was 87%, the kinase still bound, per cent of control (PTK2 (human)) was 70% and the kinase still bound, per cent of control (RAF1 (human)) was 55%. The kinase still bound, per cent of control (RET (human)) was 99%, the kinase still bound, per cent of control (RIOK3 (human)) was 47% and the kinase still bound, per cent of control (ROCK1 (human)) was 59%. For the same compound, the kinase still bound, per cent of control (RPS6KA2 KD1 (human)) was 76%, the kinase still bound, per cent of control (RPS6KB1 (human)) was 100% and the kinase still bound, per cent of control (STK4 (human)) was 100%. The kinase still bound, per cent of control (TRPM6 (human)) was 52%, the kinase still bound, per cent of control (ULK3 (human)) was 100% and the kinase still bound, per cent of control (YSK4 (human)) was 28%.
